How the values were obtained:
Type in all cases: cell-based
[1] = tested on: IFN-α secretion from PBMC under R848 stimulation; assay: R848-induced release of IFNα from human peripheral blood monocytes (PBMC); design: unit not given here; conditions: R848 5 μM, 24 h, ELISA
Method: (§1) Example 4: Inhibitory Effect of Compounds of the Present Invention on R848-Induced Release of IFNα and TNFα from Human Peripheral Blood Monocytes
(§2) The compounds of the present application were detected for their inhibitory effect on the production of peripheral blood monocytes. The peripheral blood monocytes were treated in vitro with the ligand-drug conjugates at different concentrations, and IFNα and TNFα produced by the peripheral blood monocytes were quantitatively detected after a certain time. The compounds of the present invention were evaluated for in-vitro activity.
(§3) The cryopreserved human PBMC cells were resuspended in a complete medium and counted, and the cell suspension was adjusted to 2.5×10^6 cells/mL with the culture medium. After the suspension was centrifuged to collect the cells the next day, the cells were resuspended using fresh culture medium. Test compounds were diluted to 4-fold final concentration in cell culture medium, 50 μL of the compounds were added into a 96-well cell plate, and 100 μL of diluted cells (800,000 cells/well) were added into each well of the 96-well plate containing the compounds, followed by addition of 50 μL R848 to a final concentration of 5 μM. The cell plate was incubated at 37° C. with 5% CO2 for 24 h. The supernatant was collected, and the TNF-α and IFN-α concentration levels in the supernatant were detected using an ELISA kit. TNF-α concentration assay was performed using Dakewe TNF-α ELISA kit (Cat #1117202), 100 μL of the serially-diluted cytokine standard was added into each well, 100 μL of the above supernatant diluted 10-fold was added into each well, and 100 μL of 1× dilution buffer R was added into each blank control well. 50 μL of biotinylated antibody working solution was added into each well. After mixing well, the plate was covered with a plate-sealing membrane and incubated at room temperature for 3 h. The plate was washed for 3 times: the liquid in each well was discarded, and 300 μL of 1× washing buffer working solution was added into each well; after 1 minute of residence, the liquid in the wells was discarded. The procedure was repeated for 3 times. 100 μL of Streptavidin-HRP working solution was added into each well. The plate was covered with the plate-sealing membrane and incubated at room temperature for 20 min. The plate was washed for 3 times, 100 μL of TMB liquid was added into each well, and the plate was incubated at room temperature (18-25° C.) in the dark for 25 min. The reaction was stopped by adding 100 μL stop solution rapidly to each well. The reading at a wavelength of 450 nm was detected by an M2e instrument within 10 min after termination.
IFN-α concentration assay was performed using Dakewe IFN-α ELISA kit (Cat #1110012), 100 μL of the serially-diluted cytokine standard was added into each well, 100 μL of the above supernatant diluted 2-fold was added into each well, and 100 μL of 1× dilution buffer R was added into each blank control well. 50 μL of biotinylated antibody working solution was added into each well. After mixing well, the plate was covered with a plate-sealing membrane and incubated at room temperature for 3 h. The plate was washed for 3 times: the liquid in each well was discarded, and 300 μL of 1× washing buffer working solution was added into each well; after 1 minute of residence, the liquid in the wells was discarded. The procedure was repeated for 3 times. 100 μL of Streptavidin-HRP working solution was added into each well. The plate was covered with the plate-sealing membrane and incubated at room temperature for 20 min. The plate was washed for 3 times, 100 μL of TMB liquid was added into each well, and the plate was incubated at room temperature (18-25° C.) in the dark for 25 min. The reaction was stopped by adding 100 μL stop solution rapidly to each well. The reading at a wavelength of 450 nm was detected by an M2e instrument within 10 min after termination. […]

[2] = tested on: TNF-α secretion from PBMC under R848 stimulation; assay: R848-induced release of TNFα from human peripheral blood monocytes (PBMC); design: unit not given here; conditions: R848 5 μM, 24 h, ELISA
Method: as §1, §2, §3
The contents of TNF-α and IFN-α were calculated from the OD450 values (Mean±standard deviation).

glucocorticoid receptor = molecular target: T1, glucocorticoid receptor (Homo sapiens, UniProt P04150); assay: Activity assay of glucocorticoid receptor reporter gene GRE; conditions: HEK293 cells transfected with pGL5 and pBIND-GR; 24 h; Dual-Glo luciferase
T1 construct: host or cells: HEK293
T1 sequence (P04150 1-777): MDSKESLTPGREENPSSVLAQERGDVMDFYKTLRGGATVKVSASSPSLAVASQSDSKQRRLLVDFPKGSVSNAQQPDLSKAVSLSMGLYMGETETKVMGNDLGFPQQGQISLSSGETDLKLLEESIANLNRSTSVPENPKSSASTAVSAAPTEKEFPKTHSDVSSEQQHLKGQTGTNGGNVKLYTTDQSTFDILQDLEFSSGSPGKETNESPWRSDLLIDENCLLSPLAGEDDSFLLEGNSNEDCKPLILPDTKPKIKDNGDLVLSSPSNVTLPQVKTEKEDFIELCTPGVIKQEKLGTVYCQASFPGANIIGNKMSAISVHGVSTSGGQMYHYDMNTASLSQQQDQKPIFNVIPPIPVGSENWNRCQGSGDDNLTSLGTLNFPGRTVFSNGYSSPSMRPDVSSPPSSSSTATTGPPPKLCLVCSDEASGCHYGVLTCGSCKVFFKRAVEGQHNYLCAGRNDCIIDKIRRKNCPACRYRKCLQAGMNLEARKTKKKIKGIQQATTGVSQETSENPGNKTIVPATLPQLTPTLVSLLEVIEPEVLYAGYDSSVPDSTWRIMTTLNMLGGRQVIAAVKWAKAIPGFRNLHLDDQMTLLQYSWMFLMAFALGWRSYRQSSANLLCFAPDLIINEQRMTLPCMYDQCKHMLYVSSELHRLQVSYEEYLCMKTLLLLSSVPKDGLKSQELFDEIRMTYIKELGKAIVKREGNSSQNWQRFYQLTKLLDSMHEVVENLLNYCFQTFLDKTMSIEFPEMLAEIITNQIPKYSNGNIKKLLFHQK
Method: HEK293 cells were cultured in DMEM+10% FBS medium in a carbon dioxide incubator humidified at 37° C. with 5% carbon dioxide.
HEK293 cells were digested with trypsin, and the HEK293 cell resuspension was adjusted to 200,000 cell/mL in medium (96 well plate: 100 μL/well).
Transfection reagent mixtures were prepared according to Tables 5a and 5b below, mixed well and left to stand at room temperature for 20 min.
The prepared transfection mixtures were added to 10 mL of the cell density-adjusted resuspension, mixed well by turning the mixtures upside down, and seeded into a 96-well plate at a volume of 100 μL/well.
The 96-well plate was incubated in a humidified incubator at 37° C. with 5% carbon dioxide for 24 h.
The test plate was placed back into the incubator and incubated for 24 h.
The test plate was detected using the Dual-Glo Luciferase Assay System kit from Promega, and the fluorescence signal of Firefly Luciferase and the fluorescence signal of Renilla Luciferase were read using Enspire, respectively.
The final measurement value was a normalized value “F/R” obtained by dividing the Firefly Luciferase fluorescent signal by the Renilla Luciferase fluorescent signal.
The data were copied and pasted into Excel, and the activation rate was obtained through an equation.
The data were imported into MS Excel and subjected to curve fitting by using XLFit excel add-in version 5.4.0.8 to obtain an EC50 value.
Y is the agonism and X is the concentration of the compound.

SMILES | IFN-α content in supernatant (Mean±standard deviation) ([1]; compound 4 nM) | IFN-α content in supernatant (Mean±standard deviation) ([1]; compound 20 nM) | IFN-α content in supernatant (Mean±standard deviation) ([1]; compound 100 nM) | TNF-α content in supernatant (Mean±standard deviation) ([2]; compound 4 nM) | TNF-α content in supernatant (Mean±standard deviation) ([2]; compound 20 nM) | TNF-α content in supernatant (Mean±standard deviation) ([2]; compound 100 nM) | EC50 (glucocorticoid receptor) [nM]
C[C@]12C=CC(=O)C=C1CC[C@@H]1[C@@H]2[C@@H](O)C[C@@]2(C)[C@H]1C[C@H]1O[C@@H](c3ccn(Cc4cccc(N)c4)c3)O[C@]12C(=O)CO [Compound 1] | 228.3 ± 0.2 | 0 ± 0 | 0 ± 0 | 1187.6 ± 87.4 | 611.9 ± 10.7 | 592.8 ± 92.1 | –
C[C@]12C=CC(=O)C=C1CC[C@@H]1[C@@H]2[C@@H](O)C[C@@]2(C)[C@H]1C[C@H]1O[C@@H](c3ccn(Cc4ccc(N)cc4)c3)O[C@]12C(=O)CO [Compound 2] | 108 ± 11 | 11.1 ± 11.1 | 0 ± 0 | 898.3 ± 27.7 | 584.4 ± 171.1 | 623.3 ± 238.4 | 0.15

— patent US20250179114A1, “Anti-Inflammatory Compound and Use Thereof” (DUALITY BIOLOGICS (SUZHOU) CO., LTD., priority 2021, published 2025)
